Laboratory results published in a melting point compilation (Tetko et al.).

| SMILES | melting point [°C] |
| --- | --- |
| O=C(O)c1cnn(-c2ncccc2Cl)c1C(F)F | 178 to 180 |
| Nc1nnc(-c2cccc(OC(F)F)c2)o1 | 179 to 181 |
| COC(=O)c1ccccc1S(=O)(=O)Nc1ccccc1Cl | 97 to 99 |
| Cc1cc(C)n(-c2ccc(C(=O)O)cc2F)n1 | 184 to 186 |
| Brc1cccc(-c2ncc[nH]2)c1 | 129 to 131 |
| O=C(O)c1csc(S(=O)(=O)N2CCc3ccccc3C2)c1 | 232 to 234 |
| CC(C)OCc1c(C(=O)O)oc2ccccc12 | 131 to 133 |
| CCN1C(=O)C(=O)c2cc(C)ccc21 | 104 to 106 |
| Nc1ccc(Cl)cc1-c1nc(C2CCCC2)no1 | 107 to 109 |
| O=C1NC2(CCN(Cc3ccccc3)CC2)CO1 | 164 to 166 |
| O=C(O)c1c[nH]c2cc(Cl)ccc12 | 219 to 221 |
| OC(c1ccc(Cl)cc1)C1CCNCC1 (stereo unspecified) | 139 to 141 |
| Nc1nc(CCl)nc(Nc2ccc(F)cc2)n1 | 170 to 172 |
| O=C(O)CCCc1ccc(Cl)c(Cl)c1 | 69 to 71 |
| COc1coc(CCl)cc1=O | 116 to 118 |
| CC(Cl)c1nc2ccccc2c(=O)[nH]1 (stereo unspecified) | 250 to 252 |
| O=[N+]([O-])c1ccc(Cl)c(S(=O)(=O)Cl)c1 | 85 to 87 |
| Cc1ccc(C=CC(=O)O)nc1 | 163 to 165 |
| Cn1ccc(C(=O)N2CCCCC2CC(=O)O)cc1=O (stereo unspecified) | 194 to 196 |
| FC(F)(F)c1ccc(-n2nnnc2CCl)cc1 | 56 to 58 |
| Fc1ccc(COc2ccc(CCl)cc2)cc1 | 57 to 59 |
| O=C(O)c1cn(-c2ccc(C(F)(F)F)cn2)nn1 | 134 to 136 |
| Nc1cc(S(=O)(=O)N2CCOCC2)ccc1N1CCCC1 | 179 to 181 |
| O=C(O)c1ccc(OCC2CC2)nc1 | 156 to 158 |

| SMILES | melting point [°C] |
| --- | --- |
| Nc1ccc(S(=O)(=O)N2CCC(Cc3ccccc3)CC2)cc1 | 153 to 155 |
| CC(Cl)C(=O)Nc1ccc(S(=O)(=O)N2CCCCC2)cc1 (stereo unspecified) | 130 to 135 |
| CC(C)n1cc(S(=O)(=O)Cl)cn1 | 53 to 55 |
| Cc1nn(-c2ccc(Br)cc2)cc1C(=O)O | 229 to 231 |
| Nc1nc2ccccc2o1 | 124 to 126 |
| Cc1nn(-c2ccc(F)cc2)c(C)c1C(=O)O | 219 to 221 |
| Cc1ccc(-n2nc(C(=O)O)cc2-c2ccc(-c3ccccc3)cc2)cc1 | 205 to 207 |
| O=C1CCOc2c(F)cc(F)cc21 | 135 to 137 |
| c1ccc(-c2ncc[nH]2)nc1 | 133 to 135 |
| Cc1cc(C(=O)O)c2c(Br)cccc2n1 | 232 to 234 |
| COc1ccc(S(=O)(=O)CC(C)C(=O)O)cc1 (stereo unspecified) | 116 to 118 |
| CCc1c(O)nc(S)n(-c2ccccc2OC)c1=O | 160 to 162 |
| Cc1c(Cl)cc(S(=O)(=O)Cl)cc1[N+](=O)[O-] | 60 to 62 |
| CC(Cl)C(=O)c1ccc(NS(C)(=O)=O)cc1 (stereo unspecified) | 189 to 192 |
| CC(=O)c1ccc(-n2ccnc2C)cc1 | 132 to 134 |
| CN(C)c1ccnc(C(=O)O)c1 | 234 to 236 |
| Cc1cccc(C2(C(F)(F)F)CCCN2)c1C (stereo unspecified) | 45 to 47 |
| O=C(O)CC1SC(=NN=Cc2ccc(Br)s2)NC1=O (stereo unspecified) | 278 to 280 |
| Cc1ccc(C#N)c(N)n1 | 169 to 171 |
| N#Cc1ccc(Nc2cccc(C(=O)O)c2)cc1 | 247 to 249 |
| N#CCC(C(=O)O)c1ccccc1 (stereo unspecified) | 64 to 66 |
| Nc1cc(F)ccc1N1C(=O)C2CCCCC2C1=O (stereo unspecified) | 174 to 176 |
| O=C1CCCN1c1ccc(Cl)c([N+](=O)[O-])c1 | 137 to 139 |
| NC(=O)c1sc2cc(Cl)ccc2c1Cl | 269 to 271 |

Further lines, results first:

| melting point [°C] | SMILES |
| --- | --- |
| 81 to 83 | CCCN(CCC)C(=O)c1ccc(N)cc1 |
| 146 to 148 | N#CCC(=O)NN1CCCCC1=O |
| 71 to 80 | CCN1CCc2nc(N)sc2C1 |
| 211 to 213 | COc1cc(C(=O)O)cc(Cl)c1OCC(N)=O |
| 103 to 105 | CC(C)(C)OC(=O)Nc1cccc(CCl)c1 |
| 164 to 166 | CC(C)Cn1[nH]c(CC(=O)O)cc1=O |
| 166 to 169 | CCN(CC)S(=O)(=O)c1cc(N)ccc1C |
| 51 to 53 | COC(=O)c1sc(C)cc1O |
| 244 to 246 | CCC(NC(=O)c1ccccc1)C(N)=S (stereo unspecified) |
| 259 to 261 | CCCCCCC(NC)C(=O)O (stereo unspecified) |
| 130 to 132 | NNC(=O)c1cccc2ncccc12 |
| 150 to 152 | Cc1cc(C(=O)CC#N)c(C)n1CC(F)(F)F |
| 214 to 216 | CC(C)(C)OC(=O)NCc1nc(-c2ccc(N)cc2)n[nH]1 |
| 147 to 149 | CCC(C)[C@H](NC(=O)N1CCCC1)C(=O)O (stereo partly specified) |
| 61 to 63 | CCCNC(=S)NN |
| 207 to 209 | NCCCc1nc(C2CC2)n[nH]1 |
| 155 to 159 | O=C(O)CCNS(=O)(=O)c1ccc(Cl)cc1 |
| 158 to 160 | O=C(Nc1ccc(Cl)cn1)OCC(F)(F)F |
| 49 to 51 | CCOc1ccc(O)c(C=O)c1 |
| 159 to 161 | Cc1ccc(C(=O)NCCC(=O)O)c(O)c1 |
| 126 to 128 | COC(=O)CN1CCC(C(N)=O)CC1 |
| 140 to 142 | CNS(=O)(=O)Cc1ccc(CN)cc1 |
| 37 to 39 | CCOC(=O)c1cc(Cl)ccc1[N+](=O)[O-] |
